Source: ChEMBL document CHEMBL5465560, “Selectivity Literature for EUbOPEN Chemogenomic Library” (2024)

Columns and labels:
Misshapen-like kinase 1 = Misshapen-like kinase 1 (Homo sapiens, UniProt Q8N4C8); test: Selectivity interaction (Upstate Kinase Profiler service (Millipore)) EUB0000056c MINK1; details: at 1 µM
B2 bradykinin receptor = B2 bradykinin receptor (Homo sapiens, UniProt P30411); test: Selectivity interaction (Bradykinin 2 receptor binding assay, human recombinant ) EUB0000877a BDKRB2
[1] = target: Serine/threonine-protein kinase Nek6 (Homo sapiens) (UniProt Q9HC98); details: at 10 µM
[2] = target: Serine/threonine-protein kinase OSR1 (Homo sapiens) (UniProt O95747); details: at 10 µM
[3] = target: Mitogen-activated protein kinase kinase kinase 14 (Homo sapiens) (UniProt Q99558); test: Selectivity interaction (Kinase panel (Invitrogen)) EUB0000639a MAP3K14; details: at 200 nM
[4] = target: Rho-associated protein kinase 1 (Homo sapiens) (UniProt Q13464); test: Selectivity interaction (ActivX KiNativ screen (kinase selectivity in THP-1 cell lysates)) EUB0000639a ROCK1; assay type: subcellular; details: lysate
[5] = target: T1, Histone-lysine N-methyltransferase EHMT1 (Homo sapiens) (UniProt Q9H9B1); test: Selectivity interaction (Methyltransferase screen (radiometric assays, panel of 8 PRMTs, 21 protein lysine methyltransferases, 3 DNA methyltransferases, and one RNA methyltransferase)) EUB0000271b EHMT1
T1 sequence (whole entry): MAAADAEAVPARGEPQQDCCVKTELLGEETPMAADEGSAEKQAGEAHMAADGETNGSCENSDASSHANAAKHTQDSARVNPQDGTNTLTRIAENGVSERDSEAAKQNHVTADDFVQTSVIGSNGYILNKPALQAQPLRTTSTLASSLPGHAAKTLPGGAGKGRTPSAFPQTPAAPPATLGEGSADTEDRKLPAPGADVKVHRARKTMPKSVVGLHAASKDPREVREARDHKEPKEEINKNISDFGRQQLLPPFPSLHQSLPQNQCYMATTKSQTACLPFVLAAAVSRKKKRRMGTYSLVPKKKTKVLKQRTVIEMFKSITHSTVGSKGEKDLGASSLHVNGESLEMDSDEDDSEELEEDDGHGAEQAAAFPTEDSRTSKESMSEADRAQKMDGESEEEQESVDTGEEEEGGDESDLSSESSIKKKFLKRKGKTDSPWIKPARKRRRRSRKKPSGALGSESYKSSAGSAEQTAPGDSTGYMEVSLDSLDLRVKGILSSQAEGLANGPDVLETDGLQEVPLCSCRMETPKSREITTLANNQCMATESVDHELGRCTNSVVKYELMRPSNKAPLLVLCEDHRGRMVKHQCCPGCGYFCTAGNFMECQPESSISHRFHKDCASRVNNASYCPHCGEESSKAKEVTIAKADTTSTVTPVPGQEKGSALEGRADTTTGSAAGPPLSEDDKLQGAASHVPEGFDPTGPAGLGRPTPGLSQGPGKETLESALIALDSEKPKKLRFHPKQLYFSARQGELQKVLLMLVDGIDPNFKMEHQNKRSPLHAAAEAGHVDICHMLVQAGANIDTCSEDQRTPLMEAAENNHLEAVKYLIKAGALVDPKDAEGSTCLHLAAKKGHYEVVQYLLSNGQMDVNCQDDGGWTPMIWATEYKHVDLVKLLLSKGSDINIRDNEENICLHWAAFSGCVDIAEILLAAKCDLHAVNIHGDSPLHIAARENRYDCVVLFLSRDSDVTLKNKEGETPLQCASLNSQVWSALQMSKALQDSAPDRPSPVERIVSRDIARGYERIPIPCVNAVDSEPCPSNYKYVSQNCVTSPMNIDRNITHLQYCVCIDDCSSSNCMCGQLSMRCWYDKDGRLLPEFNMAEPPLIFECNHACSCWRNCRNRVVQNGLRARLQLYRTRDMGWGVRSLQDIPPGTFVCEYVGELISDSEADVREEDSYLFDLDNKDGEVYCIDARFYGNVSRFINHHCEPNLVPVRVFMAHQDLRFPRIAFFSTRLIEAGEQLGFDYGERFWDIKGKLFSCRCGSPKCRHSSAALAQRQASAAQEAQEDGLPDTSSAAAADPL

[6] = target: T2, Tyrosine-protein kinase Mer (Homo sapiens) (UniProt Q12866); test: Selectivity interaction (KinomeScan (DiscoverX)) EUB0000695a MERTK; details: at 100 nM
T2 sequence (whole entry): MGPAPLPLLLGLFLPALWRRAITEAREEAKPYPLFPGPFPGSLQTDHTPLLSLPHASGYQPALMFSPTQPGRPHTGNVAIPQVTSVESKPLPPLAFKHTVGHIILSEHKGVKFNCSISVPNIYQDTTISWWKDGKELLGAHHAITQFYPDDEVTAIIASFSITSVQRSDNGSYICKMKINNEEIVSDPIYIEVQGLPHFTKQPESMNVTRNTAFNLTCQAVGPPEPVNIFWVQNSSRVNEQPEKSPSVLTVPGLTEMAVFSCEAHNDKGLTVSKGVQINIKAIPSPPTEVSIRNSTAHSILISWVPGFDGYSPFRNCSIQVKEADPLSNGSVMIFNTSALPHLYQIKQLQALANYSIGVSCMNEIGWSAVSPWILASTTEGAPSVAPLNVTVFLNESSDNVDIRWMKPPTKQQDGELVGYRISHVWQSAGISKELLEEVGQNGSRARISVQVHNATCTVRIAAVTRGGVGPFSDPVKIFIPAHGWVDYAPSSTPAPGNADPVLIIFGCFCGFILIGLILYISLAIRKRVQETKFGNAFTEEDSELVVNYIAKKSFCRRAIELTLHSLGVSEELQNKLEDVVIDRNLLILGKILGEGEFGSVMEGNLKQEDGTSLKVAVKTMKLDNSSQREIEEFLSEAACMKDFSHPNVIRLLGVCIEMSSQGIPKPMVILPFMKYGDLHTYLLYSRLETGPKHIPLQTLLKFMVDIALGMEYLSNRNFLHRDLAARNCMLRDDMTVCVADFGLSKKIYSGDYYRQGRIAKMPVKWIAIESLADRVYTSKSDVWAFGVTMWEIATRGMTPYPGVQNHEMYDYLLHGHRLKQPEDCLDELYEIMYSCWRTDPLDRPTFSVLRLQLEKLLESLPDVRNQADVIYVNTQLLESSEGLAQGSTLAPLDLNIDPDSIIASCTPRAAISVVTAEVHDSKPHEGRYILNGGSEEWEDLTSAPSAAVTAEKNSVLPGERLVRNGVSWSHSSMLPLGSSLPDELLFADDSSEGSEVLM

[7] = target: Mitogen-activated protein kinase kinase kinase 9 (Homo sapiens) (UniProt P80192); test: Selectivity interaction (KinomeScan (DiscoverX)) EUB0000618a MAP3K9; details: at 10 µM
[8] = target: T1, Histone-lysine N-methyltransferase EHMT1 (Homo sapiens); details: at 10 µM

Chain of Rho-associated protein kinase 1 (Homo sapiens) (Q13464 2-1354 limits assumed): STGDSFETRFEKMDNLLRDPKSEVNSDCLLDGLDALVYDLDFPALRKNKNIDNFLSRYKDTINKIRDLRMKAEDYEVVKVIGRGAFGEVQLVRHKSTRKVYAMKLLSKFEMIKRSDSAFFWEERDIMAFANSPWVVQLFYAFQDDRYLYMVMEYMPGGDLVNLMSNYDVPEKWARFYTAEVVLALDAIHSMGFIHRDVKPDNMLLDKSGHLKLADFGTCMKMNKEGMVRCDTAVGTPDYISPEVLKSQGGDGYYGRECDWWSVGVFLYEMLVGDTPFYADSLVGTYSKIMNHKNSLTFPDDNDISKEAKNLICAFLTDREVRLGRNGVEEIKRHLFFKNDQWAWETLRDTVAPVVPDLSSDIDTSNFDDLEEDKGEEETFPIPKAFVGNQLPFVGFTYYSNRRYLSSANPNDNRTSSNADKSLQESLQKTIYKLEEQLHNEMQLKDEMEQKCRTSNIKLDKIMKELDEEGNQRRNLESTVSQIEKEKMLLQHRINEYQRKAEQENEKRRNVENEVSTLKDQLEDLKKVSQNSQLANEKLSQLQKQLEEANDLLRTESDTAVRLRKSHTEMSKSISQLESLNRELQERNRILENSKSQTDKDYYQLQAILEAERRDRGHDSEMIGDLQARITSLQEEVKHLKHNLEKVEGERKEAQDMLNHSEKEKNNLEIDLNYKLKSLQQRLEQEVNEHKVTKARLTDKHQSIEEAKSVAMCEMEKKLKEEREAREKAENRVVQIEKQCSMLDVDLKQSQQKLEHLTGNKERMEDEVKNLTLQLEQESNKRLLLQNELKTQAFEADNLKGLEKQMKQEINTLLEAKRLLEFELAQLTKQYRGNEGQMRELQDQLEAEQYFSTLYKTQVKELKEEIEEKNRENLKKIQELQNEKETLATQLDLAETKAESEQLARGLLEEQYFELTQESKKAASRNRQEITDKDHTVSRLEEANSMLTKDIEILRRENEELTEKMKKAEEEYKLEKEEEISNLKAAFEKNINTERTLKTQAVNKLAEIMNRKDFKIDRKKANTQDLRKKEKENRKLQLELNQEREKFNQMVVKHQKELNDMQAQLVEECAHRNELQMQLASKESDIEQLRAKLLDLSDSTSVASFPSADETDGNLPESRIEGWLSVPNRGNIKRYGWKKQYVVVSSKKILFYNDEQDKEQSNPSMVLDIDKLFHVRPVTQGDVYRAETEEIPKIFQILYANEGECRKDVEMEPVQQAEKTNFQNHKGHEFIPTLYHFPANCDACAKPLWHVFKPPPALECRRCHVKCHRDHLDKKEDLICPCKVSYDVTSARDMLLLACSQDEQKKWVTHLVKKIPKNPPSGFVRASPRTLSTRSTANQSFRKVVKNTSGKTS
Chain of Misshapen-like kinase 1 (Q8N4C8 whole entry, looked up): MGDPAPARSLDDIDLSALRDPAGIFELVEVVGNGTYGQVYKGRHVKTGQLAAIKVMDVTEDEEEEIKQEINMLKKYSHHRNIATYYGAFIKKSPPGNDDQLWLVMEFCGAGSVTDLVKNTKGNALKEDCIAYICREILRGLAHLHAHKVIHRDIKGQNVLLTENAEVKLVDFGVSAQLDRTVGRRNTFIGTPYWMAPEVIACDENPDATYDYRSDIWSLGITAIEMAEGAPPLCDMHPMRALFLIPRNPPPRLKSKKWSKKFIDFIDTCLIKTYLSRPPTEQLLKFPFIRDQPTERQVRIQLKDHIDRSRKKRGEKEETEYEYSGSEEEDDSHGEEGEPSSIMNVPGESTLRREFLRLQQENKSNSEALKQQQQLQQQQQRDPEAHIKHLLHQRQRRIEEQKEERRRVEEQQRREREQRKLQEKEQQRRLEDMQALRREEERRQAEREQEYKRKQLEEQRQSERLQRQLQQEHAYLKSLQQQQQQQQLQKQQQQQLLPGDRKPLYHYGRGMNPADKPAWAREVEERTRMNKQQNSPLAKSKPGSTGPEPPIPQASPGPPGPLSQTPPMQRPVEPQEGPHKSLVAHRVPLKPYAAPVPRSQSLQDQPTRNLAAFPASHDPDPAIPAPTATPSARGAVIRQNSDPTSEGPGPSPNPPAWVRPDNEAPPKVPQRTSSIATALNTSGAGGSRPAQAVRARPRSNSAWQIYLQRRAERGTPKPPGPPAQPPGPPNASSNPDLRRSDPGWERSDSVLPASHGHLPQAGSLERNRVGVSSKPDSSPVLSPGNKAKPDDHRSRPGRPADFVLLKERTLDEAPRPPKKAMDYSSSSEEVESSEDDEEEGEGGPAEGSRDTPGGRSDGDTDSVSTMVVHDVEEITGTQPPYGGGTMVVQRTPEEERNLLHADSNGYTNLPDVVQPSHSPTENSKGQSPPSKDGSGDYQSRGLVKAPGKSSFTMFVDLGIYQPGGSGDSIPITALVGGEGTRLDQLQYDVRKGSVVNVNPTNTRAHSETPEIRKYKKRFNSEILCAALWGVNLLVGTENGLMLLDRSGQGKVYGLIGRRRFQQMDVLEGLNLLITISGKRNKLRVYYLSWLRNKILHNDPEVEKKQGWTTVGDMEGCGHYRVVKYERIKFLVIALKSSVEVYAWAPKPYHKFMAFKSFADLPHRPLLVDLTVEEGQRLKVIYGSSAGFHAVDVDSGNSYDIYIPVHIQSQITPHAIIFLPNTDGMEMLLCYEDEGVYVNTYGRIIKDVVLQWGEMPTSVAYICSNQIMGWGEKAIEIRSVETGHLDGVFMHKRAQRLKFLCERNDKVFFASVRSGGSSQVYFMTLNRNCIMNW
Chain of Mitogen-activated protein kinase kinase kinase 9 (Homo sapiens) (P80192 whole entry, looked up): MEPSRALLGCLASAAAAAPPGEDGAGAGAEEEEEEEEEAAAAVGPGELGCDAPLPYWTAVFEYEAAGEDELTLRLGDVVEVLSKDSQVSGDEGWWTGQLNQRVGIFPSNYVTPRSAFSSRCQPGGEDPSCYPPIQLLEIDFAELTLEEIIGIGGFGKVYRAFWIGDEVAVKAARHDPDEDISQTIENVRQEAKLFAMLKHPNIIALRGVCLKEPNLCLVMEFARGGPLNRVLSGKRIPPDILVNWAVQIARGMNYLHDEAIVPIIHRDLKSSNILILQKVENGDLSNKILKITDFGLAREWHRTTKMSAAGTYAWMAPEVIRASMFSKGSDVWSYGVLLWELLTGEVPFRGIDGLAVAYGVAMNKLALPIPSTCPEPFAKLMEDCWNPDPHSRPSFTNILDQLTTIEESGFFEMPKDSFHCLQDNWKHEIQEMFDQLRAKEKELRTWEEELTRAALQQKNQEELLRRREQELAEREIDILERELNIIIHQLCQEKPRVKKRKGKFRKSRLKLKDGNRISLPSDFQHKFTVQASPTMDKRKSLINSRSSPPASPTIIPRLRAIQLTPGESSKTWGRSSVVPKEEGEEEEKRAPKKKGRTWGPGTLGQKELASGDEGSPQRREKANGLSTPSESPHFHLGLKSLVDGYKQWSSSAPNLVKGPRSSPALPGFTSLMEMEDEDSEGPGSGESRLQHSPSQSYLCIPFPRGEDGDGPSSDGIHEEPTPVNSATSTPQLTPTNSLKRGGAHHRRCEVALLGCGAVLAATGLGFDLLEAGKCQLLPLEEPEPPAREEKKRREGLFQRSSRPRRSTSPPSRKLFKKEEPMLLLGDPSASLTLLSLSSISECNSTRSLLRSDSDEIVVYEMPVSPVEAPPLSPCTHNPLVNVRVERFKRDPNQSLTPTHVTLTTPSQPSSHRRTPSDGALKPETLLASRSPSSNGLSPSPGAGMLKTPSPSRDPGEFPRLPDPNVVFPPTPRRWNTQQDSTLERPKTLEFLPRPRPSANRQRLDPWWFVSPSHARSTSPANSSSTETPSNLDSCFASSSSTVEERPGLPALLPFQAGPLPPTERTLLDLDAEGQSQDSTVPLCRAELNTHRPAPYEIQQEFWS
Chain of B2 bradykinin receptor (P30411 whole entry): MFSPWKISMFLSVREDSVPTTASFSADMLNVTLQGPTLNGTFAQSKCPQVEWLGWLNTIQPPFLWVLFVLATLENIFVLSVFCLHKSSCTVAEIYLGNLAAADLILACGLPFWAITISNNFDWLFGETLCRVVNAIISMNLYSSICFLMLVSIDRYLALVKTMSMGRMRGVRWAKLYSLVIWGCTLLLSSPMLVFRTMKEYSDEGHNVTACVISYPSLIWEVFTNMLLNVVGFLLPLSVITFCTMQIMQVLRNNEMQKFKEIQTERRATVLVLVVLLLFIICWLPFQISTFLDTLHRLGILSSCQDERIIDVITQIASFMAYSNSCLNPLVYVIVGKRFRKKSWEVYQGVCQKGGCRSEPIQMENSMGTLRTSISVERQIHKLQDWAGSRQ
Chain of Serine/threonine-protein kinase OSR1 (Homo sapiens) (O95747 2-527 limits assumed): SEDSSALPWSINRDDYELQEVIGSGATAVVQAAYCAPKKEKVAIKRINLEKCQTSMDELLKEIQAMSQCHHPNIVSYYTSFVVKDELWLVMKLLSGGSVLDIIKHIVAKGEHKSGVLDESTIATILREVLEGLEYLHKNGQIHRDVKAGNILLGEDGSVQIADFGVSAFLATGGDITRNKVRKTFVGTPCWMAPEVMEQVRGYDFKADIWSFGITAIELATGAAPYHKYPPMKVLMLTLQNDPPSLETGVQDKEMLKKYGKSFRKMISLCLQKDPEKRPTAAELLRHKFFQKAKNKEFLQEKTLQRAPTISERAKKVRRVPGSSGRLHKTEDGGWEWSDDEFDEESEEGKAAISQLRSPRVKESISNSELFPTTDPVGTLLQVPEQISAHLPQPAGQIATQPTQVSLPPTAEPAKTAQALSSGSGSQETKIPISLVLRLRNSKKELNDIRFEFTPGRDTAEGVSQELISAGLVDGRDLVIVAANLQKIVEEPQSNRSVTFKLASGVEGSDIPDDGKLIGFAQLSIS
Chain of Serine/threonine-protein kinase Nek6 (Homo sapiens) (Q9HC98 whole entry): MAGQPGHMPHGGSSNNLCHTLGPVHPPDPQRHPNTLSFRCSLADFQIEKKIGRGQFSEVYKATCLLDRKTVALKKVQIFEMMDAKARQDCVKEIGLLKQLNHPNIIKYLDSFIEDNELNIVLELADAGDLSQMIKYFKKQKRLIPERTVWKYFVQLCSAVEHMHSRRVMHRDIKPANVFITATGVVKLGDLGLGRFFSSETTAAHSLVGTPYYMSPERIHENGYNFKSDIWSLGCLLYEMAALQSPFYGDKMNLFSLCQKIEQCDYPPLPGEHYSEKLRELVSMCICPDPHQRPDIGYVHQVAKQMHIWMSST

`Cc1ccc(-c2ccc3c(ccc4sc5c(c43)NC[C@@H](C)NC5=O)n2)cn1` showed a % of inhibition (Misshapen-like kinase 1) of 11%.
With `CCC(=O)N1CC[C@H](Nc2ncnc3c2CN(c2cnc(OC)c(C(F)(F)F)c2)CC3)C1` [LENIOLISIB] the IC50 (B2 bradykinin receptor) was > 30 µM.
Compound `Cc1cc([C@@H](C)Nc2ccccc2C(=O)O)c2nc(N3CCOCC3)cc(=O)n2c1` [AZD-6482] has a % of control [1] of 100% and a % of control [2] of 100%.
`CC[C@@H]1[C@H](F)C(=O)N[C@@H]1COc1nccc2cc(C(N)=O)c(OC)cc12` [ZIMLOVISERTIB] gave a % of inhibition [3] of -0.0527%, a % of inhibition ([4]; at 0.01 µM) of 12.6% and a % of inhibition ([4]; at 0.04 µM) of -4.3%. It also gave a % of inhibition ([4]; at 0.2 µM) of -10.6%, a % of inhibition ([4]; at 1 µM) of 18.3% and a % of inhibition ([4]; at 5 µM) of 53.9%.
With `Cc1cc(C)cc([C@@H]2c3cc(C)ccc3NC(=O)CN2C(=O)c2ccc(Br)s2)c1` the % of activity ([5]; at 1 µM) was 99% and the % of activity ([5]; at 10 µM) was 99%.
`Cc1cc(F)c(C(=O)Nc2cccc(-c3nncn3C(C)C)n2)cc1-n1cnc(C2CC2)c1` was tested, and the % of control [6] was 99%.
`O[C@H]1CC[C@H](Nc2ncc3nc(Nc4c(F)cc(F)cc4F)n([C@H]4CCOC4)c3n2)CC1` was tested, and the % of control [7] was 100%.
For `CNCCN1CCC(c2cc(CN(C)C(=O)c3cccc(Oc4ccccc4)c3)ccn2)CC1`, the % activity [8] was > 90%.
